Experimental findings from patent publication US20250179077A1, “QUINAZOLINE COMPOUNDS AND USES THEREOF AS INHIBITORS OF MUTANT KRAS PROTEINS” (AMGEN INC., priority 2022, published 2025) are described below.

pIC50: −log10 of the molar value. Like-named read-outs stand apart in the source and are kept apart here.

The target in experiment [1] is His-tagged KRAS G12D protein (Homo sapiens, UniProt P01116, G12D). In words: KRAS G12D TR-FRET Assay. Type of experiment: binding. The protocol: KRAS G12D TR-FRET Assay Compounds of interest were prepared in a dose-response titration in DMSO, and 80 nL were added via Labcyte Echo to each well of a 384-well plate (Perkin Elmer 6008280). The His-tagged KRAS G12D protein (Amgen) was diluted to 20 nM in Assay Buffer (20 mM HEPES, pH 7.4, 10 mM MgCl2, 50 mM NaCl, 0.1% BSA, 0.01% Tween-20, 10 μM GDP) and 2 uL was added to the appropriate wells of the 384-well plate. The plate was incubated for 30 minutes at room temperature. Biotinylated KRPep-2d substrate (Amgen) was diluted to 20 nM in Assay Buffer and 2 μL was added to all wells and incubated for 1 hour at room temperature. Detection Reagent (0.4 nM LANCE Eu-W1024 Anti-6×-His (Perkin Elmer AD0401), 5 nM streptavidin-d2 (Cisbio 610SADLA)) was prepared in Assay Buffer, then 4 μL was added to the plate and incubated for 1 hour at room temperature. Plates were read using PerkinElmer EnVision (ex: 320 nm, em1: 665 nm, em2: 615 nm) and em1/em2 data was used to generate curve fits using a 4-parameter logistic model to calculate IC50 values.
Chain of His-tagged KRAS G12D protein (P01116 1-188 isoform P01116-2 G12D): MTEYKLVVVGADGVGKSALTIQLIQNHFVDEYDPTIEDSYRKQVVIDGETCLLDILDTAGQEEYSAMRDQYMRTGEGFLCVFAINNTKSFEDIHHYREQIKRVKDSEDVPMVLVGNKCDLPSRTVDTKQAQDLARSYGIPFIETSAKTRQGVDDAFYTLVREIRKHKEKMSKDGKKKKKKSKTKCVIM

The target in experiment [2] is GDP-bound KRAS protein (aa 1-169), containing both G12D and C118A amino acid substitutions (Homo sapiens, UniProt P01116, C118A/G12D). In words: KRAS G12D Coupled Nucleotide Exchange Assay. It counts as biochemical. The procedure:
KRAS G12D Coupled Nucleotide Exchange Assay
Following compound pre-incubation, purified SOS protein (aa 564-1049) and GTP (Roche 10106399001) were added to the assay wells and incubated for an additional 30 min. […] The assay plates were then read on a PerkinElmer EnVision Multilabel Reader, using AlphaScreen® technology, and data were analyzed using a 4-parameter logistic model to calculate IC50 values.

Experiment [3] relates to Phosphorylation of ERK1/2 in AsPC-1 cells. In words: Phospho-ERK1/2 MSD Assay. Type of experiment: cell-based. The procedure:
AsPC-1 (ATCC® CRL-1682™) cells were cultured in RPMI 1640 Medium (ThermoFisher Scientific 11875093) containing 10% fetal bovine serum (ThermoFisher Scientific 16000044) and Ix penicillin-streptomycin-glutamine (ThermoFisher Scientific 10378016). Sixteen hours prior to compound treatment, AsPC-1 cells were seeded in 96-well cell culture plates at a density of 25,000 cells/well and incubated at 37° C., 5% CO2. A compound dose-response titration was diluted in growth media, added to appropriate wells of a cell culture plate, and then incubated at 37° C., 5% CO2 for 2 h. Following compound treatment, cells were washed with ice-cold Dulbecco's phosphate-buffered saline, no Ca^2+ or Mg^2+ (ThermoFisher Scientific 14190144), and then lysed in RIPA buffer (50 mM Tris-HCl pH 7.5, 1% Igepal, 0.5% sodium deoxycholate, 150 mM NaCl, and 0.5% sodium dodecyl sulfate) containing protease inhibitors (Roche 4693132001) and phosphatase inhibitors (Roche 4906837001). Phosphorylation of ERK1/2 in compound-treated lysates was assayed using Phospho-ERK1/2 Whole Cell Lysate kits (Meso Scale Discovery K151DWD) according to the manufacturer's protocol. Assay plates were read on a Meso Scale Discovery Sector Imager 6000, and data were analyzed using a 4-parameter logistic model to calculate IC50 values.

Where [4] appears, read: Homo sapiens, ASPC1, 2 h, read-out: 2 h p-ERK (AsPC-1 cells), IC50, AsPC-1 cells, 2 h compound treatment.

Chain of GDP-bound KRAS protein (aa 1-169), containing both G12D and C118A amino acid substitutions (P01116 1-169 isoform P01116-2 G12D/C118A): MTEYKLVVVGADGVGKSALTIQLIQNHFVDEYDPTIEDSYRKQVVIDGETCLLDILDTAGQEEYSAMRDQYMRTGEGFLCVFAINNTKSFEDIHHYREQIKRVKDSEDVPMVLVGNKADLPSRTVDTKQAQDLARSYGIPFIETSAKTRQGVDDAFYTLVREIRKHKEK

Regarding `CCc1c(F)ccc2cc(O)cc(-c3c(F)cc4c(N5CCC[C@@](C)(O)C5)nc(OC[C@@]56CCCN5C[C@H](F)C6)nc4c3F)c12` (atropisomer, axis not shown) [Example 3, (3R)-1-(7-(8-Ethyl-7-fluoro-3-hydroxynaphthalen-1-yl)-6,8-difluoro-2-(((2R,7a.S)-2-fluorotetrahydro-1H-pyrrolizin-7a(5H)-yl)methoxy)quinazolin-4-yl)-3-methylpiperidin-3-ol], the pIC50 was 6.90 in experiment [1] and 6.87 in experiment [2].
On to `C[C@@H]1C[C@@H]1c1c(Cl)cc2[nH]ncc2c1-c1ccc2c(N3CCC[C@@](C)(O)C3)nc(OC[C@@]34CCCN3C[C@H](F)C4)nc2c1F` (atropisomer, axis not shown; (aS)) [Example 110, (R)-1-((R)-7-(6-Chloro-5-((1S,2R)-2-methylcyclopropyl)-1H-indazol-4-yl)-8-fluoro-2-(((2R,7aS)-2-fluorotetrahydro-1H-pyrrolizin-7a(5H)-yl)methoxy)quinazolin-4-yl)-3-methylpiperidin-3-ol], for which the pIC50 was 8.05 in experiment [1] and 6.91 in experiment [3] (setting [4]). The compound further returned an IC50 in experiment [2] of 8 nM.
On to `Cc1cc2[nH]ncc2c(-c2ccc3c(N4CCC[C@](O)(CF)C4)nc(OC[C@@]45CCCN4C[C@H](F)C5)nc3c2F)c1[C@H]1C[C@H]1C` (atropisomer, axis not shown; (aS)) [Example 118, (R)-1-((S)-8-Fluoro-2-(((2R,7aS)-2-fluorotetrahydro-1H-pyrrolizin-7a(5H)-yl)methoxy)-7-(6-methyl-5-((1S,2R)-2-methylcyclopropyl)-1H-indazol-4-yl)quinazolin-4-yl)-3-(fluoromethyl)piperidin-3-ol], for which the negative logarithm of the IC50 (pIC50) was 8.30 in experiment [1] and 6.90 in experiment [3] (setting [4]). Moreover, the IC50 in experiment [2] is 4 nM.
For `Cc1cc2[nH]ncc2c(-c2c(F)cc3c(N4CCC[C@@](C)(O)C4)nc(OC[C@@]45CCCN4C[C@H](F)C5)nc3c2F)c1[C@H]1C[C@H]1C` (atropisomer, axis not shown; (aS)) [Example 121, (R)-1-((S)-6,8-Difluoro-2-(((2R,7aS)-2-fluorotetrahydro-1H-pyrrolizin-7a(5H)-yl)methoxy)-7-(6-methyl-5-((1S,2R)-2-methylcyclopropyl)-1H-indazol-4-yl)quinazolin-4-yl)-3-methylpiperidin-3-ol bis(2,2,2-trifluoroacetate)], in that order: 8.05, 6.81 and 6 nM.
As to `CCc1c(F)ccc2cc(O)cc(-c3c(F)cc4c(N5[C@H]6CCC(O)[C@@H]5CC6)nc(OC[C@@]56CCCN5C[C@H](F)C6)nc4c3F)c12` (mixture of isomers) [Example 55, rac-(1S,5R)-8-(7-(8-Ethyl-7-fluoro-3-hydroxynaphthalen-1-yl)-6,8-difluoro-2-(((2R,7aS)-2-fluorotetrahydro-1H-pyrrolizin-7a(5H)-yl)methoxy)quinazolin-4-yl)-8-azabicyclo[3.2.1]octan-2-ol], the pIC50 in experiment [1] is 7.68; in experiment [3] (setting [4]), 6.09. The same compound yielded an IC50 in experiment [2] of 11 nM.
For `C#Cc1cccc2cc(O)cc(-c3c(F)cc4c(N5CCC[C@@](C)(O)C5)nc(OC[C@@]56CCCN5C[C@H](F)C6)nc4c3F)c12` (single isomer, unassigned) [Example 11], in experiment [1], the pIC50 was 6.67. In experiment [2], this compound displayed an IC50 of 186 nM.
In turn, `CCc1c(F)ccc2cc(O)cc(-c3c(F)cc4c(N5CCCC(O)(C(F)F)C5)nc(OC[C@@]56CCCN5C[C@H](F)C6)nc4c3F)c12` (single isomer, unassigned) [Example 21] showed a pIC50 in experiment [1] of 7.40. Also, the 50% inhibitory concentration (IC50) in experiment [2] was determined as 40 nM.
In turn, `CCc1c(F)ccc2cc(O)cc(-c3c(F)cc4c(N5CCCC(O)(C(F)F)C5)nc(OC[C@@]56CCCN5C[C@H](F)C6)nc4c3F)c12` (single isomer, unassigned) [Example 22] showed a pIC50 in experiment [1] of 7.02. The compound also registered an IC50 in experiment [2] of 58 nM.
The like results for `CCc1c(F)ccc2cc(O)cc(-c3ccc4c(N5CCCC(O)(C(F)F)C5)nc(OC[C@@]56CCCN5C[C@H](F)C6)nc4c3F)c12` (single isomer, unassigned) [Example 24] were, in that order, 7.15 and 80 nM.
Consider `CCc1c(F)ccc2cc(O)cc(-c3c(O)cc4c(N5CCC[C@@](C)(O)C5)nc(OC[C@@]56CCCN5C[C@H](F)C6)nc4c3F)c12` (single isomer, unassigned) [Example 28], for which the pIC50 in experiment [1] was 6.56. The IC50 in experiment [2] was 302 nM.
The compound `CCc1c(F)ccc2cc(O)cc(-c3c(F)cc4c(N5CCOCC(C)(O)C5)nc(OC[C@@]56CCCN5C[C@H](F)C6)nc4c3F)c12` (single isomer, unassigned) [Example 35] gave a pIC50 in experiment [1] of 6.91. In experiment [2], this compound registered a concentration for half-maximal inhibition (IC50) of 43 nM.
`CCc1c(F)ccc2cc(O)cc(-c3c(F)cc4c(N5CCCC6(CNC(=O)O6)C5)nc(OC[C@@]56CCCN5C[C@H](F)C6)nc4c3F)c12` (single isomer, unassigned) [Example 57]: in experiment [1], the pIC50 is 6.36. In experiment [2], this compound registered an IC50 of 87 nM.
For `CCc1c(F)ccc2cc(O)cc(-c3c(F)cc4c(N5CCCC6(CNC(=O)O6)C5)nc(OC[C@@]56CCCN5C[C@H](F)C6)nc4c3F)c12` (single isomer, unassigned) [Example 58], the pIC50 is 9.00 in experiment [1] and 8.52 in experiment [3] (read-out: 2 h p-ERK (AsPC-1 cells), IC50, AsPC-1 cells, 2 h compound treatment).
In experiment [1], `CCc1c(F)ccc2cc(N)cc(-c3c(F)cc4c(N5CCC[C@@](C)(O)C5)nc(OC[C@@]56CCCN5C[C@H](F)C6)nc4c3F)c12` (single isomer, unassigned) [Example 61] gave a pIC50 of 6.14. In experiment [2], the IC50 was determined as 272 nM.
Turning to `C#Cc1c(F)ccc2cc(N)cc(-c3c(F)cc4c(N5CCC[C@@](C)(O)C5)nc(OC[C@@]56CCCN5C[C@H](F)C6)nc4c3F)c12` (single isomer, unassigned) [Example 63], in experiment [1], the pIC50 is 6.65. For the same compound, the IC50 in experiment [2] came to 138 nM.
Take `C#Cc1c(F)ccc2cc(N)cc(-c3c(F)cc4c(N5CCC[C@@](C)(O)C5)nc(OC[C@@]56CCCN5C[C@H](F)C6)nc4c3F)c12` (single isomer, unassigned) [Example 64]: in experiment [3] (setting [4]), the pIC50 was 7.13.
On to `C#Cc1c(F)ccc2cccc(-c3c(F)cc4c(N5CCC[C@@](C)(O)C5)nc(OC[C@@]56CCCN5C[C@H](F)C6)nc4c3F)c12` (single isomer, unassigned) [Example 66], for which the pIC50 in experiment [1] is 6.18. Also, the IC50 in experiment [2] was found to be 589 nM.
As for `CCc1c(F)ccc2cc(O)cc(-c3ccc4c(N5CCC(C(N)=O)C5)nc(OC[C@@]56CCCN5C[C@H](F)C6)nc4c3F)c12` (stereo partly drawn) [Example 8, 1-(7-(8-Ethyl-7-fluoro-3-hydroxynaphthalen-1-yl)-8-fluoro-2-(((2R,7aS)-2-fluorotetrahydro-1H-pyrrolizin-7a(5H)-yl)methoxy)quinaquinazolin-4-yl)pyrrolidine-3-carboxamide], the pIC50 in experiment [1] is 7.66. In addition, in experiment [2], the IC50 turned out to be 11 nM.
The compound `Cc1cc2[nH]ncc2c(-c2c(F)cc3c(N4CCC[C@@](C)(O)C4)nc(OC[C@@]45CCCN4C[C@H](F)C5)nc3c2F)c1Cl` [Example 48, (3R)-1-(7-(5-Chloro-6-methyl-1H-indazol-4-yl)-6,8-difluoro-2-(((2R,7a.S)-2-fluorotetrahydro-1H-pyrrolizin-7a(5H)-yl)methoxy)quinazolin-4-y1)-3-methylpiperidin-3-ol] gave a pIC50 in experiment [1] of 7.66. In addition, the IC50 in experiment [2] turned out to be 23 nM.
As to `Cc1c(Cl)cc2[nH]ncc2c1-c1c(F)cc2c(N3CCC[C@@](C)(O)C3)nc(OC[C@@]34CCCN3C[C@H](F)C4)nc2c1F` [Example 49, (3R)-1-(7-(6-Chloro-5-methyl-1H-indazol-4-yl)-6,8-difluoro-2-(((2R,7aS)-2-fluorotetrahydro-1H-pyrrolizin-7a(5H)-yl)methoxy)quinazolin-4-yl)-3-methylpiperidin-3-ol], the pIC50 in experiment [1] is 8.00. This compound returned an IC50 in experiment [2] of 10 nM.
